{
  "source": "paper PMC8405607",
  "about": "(British Journal of Cancer, 2021)",
  "tested_on": "advanced solid tumours",
  "test": "phase I antitumor activity (RECIST v1.1) and treatment duration; Reg 1: 3qw continuous; Reg 3: 3qw 2 weeks on/1 week off",
  "format": "in vivo, human",
  "parameters": "DCR / ORR: unit not given here",
  "procedure": "All patients provided written informed consent. […] Antitumor efficacy was assessed using computerised tomography (CT)/magnetic resonance imaging assessment at baseline and every 8 weeks until disease progression or the initiation of subsequent antineoplastic therapy or death, whichever occurred first. In addition, the criteria for determining confirmed partial response (PR) or complete response (CR) were required to be present for at least 4 weeks. Demographic and other baseline data and PK/PD parameters were summarised using descriptive statistics.[11] PK parameters were estimated using noncompartmental methods (Phoenix®, Pharsight, Mountain View, California, USA).",
  "data": [
    {"smiles": "COc1cc2c(cc1OC(C)C)[C@H](c1ccc(Cl)cc1)N(c1ccc(N(C)C[C@H]3CC[C@H](N4CCN(C)C(=O)C4)CC3)cc1)C(=O)C2", "note": "[CGM097]", "values": [
      {"measurement": "BOR: CR", "setting": "10 mg Reg 1, N = 3", "value": 0},
      {"measurement": "BOR: PD", "setting": "10 mg Reg 1, N = 3", "value": "2 (66.7)"},
      {"measurement": "BOR: PR", "setting": "10 mg Reg 1, N = 3", "value": 0},
      {"measurement": "BOR: SD", "setting": "10 mg Reg 1, N = 3", "value": "1 (33.3)"},
      {"measurement": "BOR: Unknown", "setting": "10 mg Reg 1, N = 3", "value": 0},
      {"measurement": "DCR", "setting": "10 mg Reg 1, N = 3", "value": "1 (33.3)"},
      {"measurement": "ORR", "setting": "10 mg Reg 1, N = 3", "value": 0},
      {"measurement": "BOR: CR", "setting": "20 mg Reg 1, N = 4", "value": 0},
      {"measurement": "BOR: PD", "setting": "20 mg Reg 1, N = 4", "value": "2 (50.0)"},
      {"measurement": "BOR: PR", "setting": "20 mg Reg 1, N = 4", "value": 0},
      {"measurement": "BOR: SD", "setting": "20 mg Reg 1, N = 4", "value": "1 (25.0)"},
      {"measurement": "BOR: Unknown", "setting": "20 mg Reg 1, N = 4", "value": "1 (25.0)"},
      {"measurement": "DCR", "setting": "20 mg Reg 1, N = 4", "value": "1 (25.0)"},
      {"measurement": "ORR", "setting": "20 mg Reg 1, N = 4", "value": 0},
      {"measurement": "BOR: CR", "setting": "40 mg Reg 1, N = 4", "value": 0},
      {"measurement": "BOR: PD", "setting": "40 mg Reg 1, N = 4", "value": "2 (50.0)"},
      {"measurement": "BOR: PR", "setting": "40 mg Reg 1, N = 4", "value": 0},
      {"measurement": "BOR: SD", "setting": "40 mg Reg 1, N = 4", "value": "1 (25.0)"},
      {"measurement": "BOR: Unknown", "setting": "40 mg Reg 1, N = 4", "value": "1 (25.0)"},
      {"measurement": "DCR", "setting": "40 mg Reg 1, N = 4", "value": "1 (25.0)"},
      {"measurement": "ORR", "setting": "40 mg Reg 1, N = 4", "value": 0},
      {"measurement": "BOR: CR", "setting": "80 mg Reg 1, N = 4", "value": 0},
      {"measurement": "BOR: PD", "setting": "80 mg Reg 1, N = 4", "value": "3 (75.0)"},
      {"measurement": "BOR: PR", "setting": "80 mg Reg 1, N = 4", "value": 0},
      {"measurement": "BOR: SD", "setting": "80 mg Reg 1, N = 4", "value": "1 (25.0)"},
      {"measurement": "BOR: Unknown", "setting": "80 mg Reg 1, N = 4", "value": 0},
      {"measurement": "DCR", "setting": "80 mg Reg 1, N = 4", "value": "1 (25.0)"},
      {"measurement": "ORR", "setting": "80 mg Reg 1, N = 4", "value": 0},
      {"measurement": "BOR: CR", "setting": "150 mg Reg 1, N = 4", "value": 0},
      {"measurement": "BOR: PD", "setting": "150 mg Reg 1, N = 4", "value": "3 (75.0)"},
      {"measurement": "BOR: PR", "setting": "150 mg Reg 1, N = 4", "value": 0},
      {"measurement": "BOR: SD", "setting": "150 mg Reg 1, N = 4", "value": 0},
      {"measurement": "BOR: Unknown", "setting": "150 mg Reg 1, N = 4", "value": "1 (25.0)"},
      {"measurement": "DCR", "setting": "150 mg Reg 1, N = 4", "value": 0},
      {"measurement": "ORR", "setting": "150 mg Reg 1, N = 4", "value": 0},
      {"measurement": "BOR: CR", "setting": "300 mg Reg 1, N = 7", "value": 0},
      {"measurement": "BOR: PD", "setting": "300 mg Reg 1, N = 7", "value": "3 (42.9)"},
      {"measurement": "BOR: PR", "setting": "300 mg Reg 1, N = 7", "value": "1 (14.3)"},
      {"measurement": "BOR: SD", "setting": "300 mg Reg 1, N = 7", "value": "2 (28.6)"},
      {"measurement": "BOR: Unknown", "setting": "300 mg Reg 1, N = 7", "value": "1 (14.3)"},
      {"measurement": "DCR", "setting": "300 mg Reg 1, N = 7", "value": "3 (42.9)"},
      {"measurement": "ORR", "setting": "300 mg Reg 1, N = 7", "value": "1 (14.3)"},
      {"measurement": "BOR: CR", "setting": "300 mg Reg 3, N = 8", "value": 0},
      {"measurement": "BOR: PD", "setting": "300 mg Reg 3, N = 8", "value": "3 (37.5)"},
      {"measurement": "BOR: PR", "setting": "300 mg Reg 3, N = 8", "value": 0},
      {"measurement": "BOR: SD", "setting": "300 mg Reg 3, N = 8", "value": "5 (62.5)"},
      {"measurement": "BOR: Unknown", "setting": "300 mg Reg 3, N = 8", "value": 0},
      {"measurement": "DCR", "setting": "300 mg Reg 3, N = 8", "value": "5 (62.5)"},
      {"measurement": "ORR", "setting": "300 mg Reg 3, N = 8", "value": 0},
      {"measurement": "BOR: CR", "setting": "400 mg Reg 1, N = 5", "value": 0},
      {"measurement": "BOR: PD", "setting": "400 mg Reg 1, N = 5", "value": "1 (20.0)"},
      {"measurement": "BOR: PR", "setting": "400 mg Reg 1, N = 5", "value": 0},
      {"measurement": "BOR: SD", "setting": "400 mg Reg 1, N = 5", "value": "4 (80.0)"},
      {"measurement": "BOR: Unknown", "setting": "400 mg Reg 1, N = 5", "value": 0},
      {"measurement": "DCR", "setting": "400 mg Reg 1, N = 5", "value": "4 (80.0)"},
      {"measurement": "ORR", "setting": "400 mg Reg 1, N = 5", "value": 0},
      {"measurement": "BOR: CR", "setting": "500 mg Reg 3, N = 6", "value": 0},
      {"measurement": "BOR: PD", "setting": "500 mg Reg 3, N = 6", "value": "3 (50.0)"},
      {"measurement": "BOR: PR", "setting": "500 mg Reg 3, N = 6", "value": 0},
      {"measurement": "BOR: SD", "setting": "500 mg Reg 3, N = 6", "value": "3 (50.0)"},
      {"measurement": "BOR: Unknown", "setting": "500 mg Reg 3, N = 6", "value": 0},
      {"measurement": "DCR", "setting": "500 mg Reg 3, N = 6", "value": "3 (50.0)"},
      {"measurement": "ORR", "setting": "500 mg Reg 3, N = 6", "value": 0},
      {"measurement": "BOR: CR", "setting": "700 mg Reg 3, N = 6", "value": 0},
      {"measurement": "BOR: PD", "setting": "700 mg Reg 3, N = 6", "value": "3 (50.0)"},
      {"measurement": "BOR: PR", "setting": "700 mg Reg 3, N = 6", "value": 0},
      {"measurement": "BOR: SD", "setting": "700 mg Reg 3, N = 6", "value": "1 (16.7)"},
      {"measurement": "BOR: Unknown", "setting": "700 mg Reg 3, N = 6", "value": "2 (33.3)"},
      {"measurement": "DCR", "setting": "700 mg Reg 3, N = 6", "value": "1 (16.7)"},
      {"measurement": "ORR", "setting": "700 mg Reg 3, N = 6", "value": 0},
      {"measurement": "disease control rate", "setting": "20/51 patients", "value": 39, "unit": "%"},
      {"measurement": "BOR: PD", "setting": "All patients, N = 51", "value": "25 (49.0)"},
      {"measurement": "BOR: Unknown", "setting": "All patients, N = 51", "value": "6 (11.8)"}
    ]}
  ]
}
